Data taken from patent publication US7928140B2, “Benzothiazole PI3 kinase modulators for cancer treatment” (Amgen Inc., priority 2007, dated 2011).

Legend:
[1] = molecular target: T1, PI3K β (Homo sapiens, UniProt P42338); assay: In vitro PI3 kinase enzyme assay (beta), ATP loss, bioluminescence; format: biochemical; settings: read-out: PI3Kβ ATP loss IC50;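 note: purified p110β/p85 heterodimer with PtdIns(4,5)P2 as acceptor, incubated at room temperature, leftover ATP read by luminescence, inhibition scaled to compound-free wells with and without enzyme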
T1 construct: Full length p110 subunits of PI3K α, β and δ, N-terminally labeled with polyHis tag; polyHis (N); made in house; host or cells: Sf9 insect cells (baculovirus)
T1 sequence (P42338 whole entry): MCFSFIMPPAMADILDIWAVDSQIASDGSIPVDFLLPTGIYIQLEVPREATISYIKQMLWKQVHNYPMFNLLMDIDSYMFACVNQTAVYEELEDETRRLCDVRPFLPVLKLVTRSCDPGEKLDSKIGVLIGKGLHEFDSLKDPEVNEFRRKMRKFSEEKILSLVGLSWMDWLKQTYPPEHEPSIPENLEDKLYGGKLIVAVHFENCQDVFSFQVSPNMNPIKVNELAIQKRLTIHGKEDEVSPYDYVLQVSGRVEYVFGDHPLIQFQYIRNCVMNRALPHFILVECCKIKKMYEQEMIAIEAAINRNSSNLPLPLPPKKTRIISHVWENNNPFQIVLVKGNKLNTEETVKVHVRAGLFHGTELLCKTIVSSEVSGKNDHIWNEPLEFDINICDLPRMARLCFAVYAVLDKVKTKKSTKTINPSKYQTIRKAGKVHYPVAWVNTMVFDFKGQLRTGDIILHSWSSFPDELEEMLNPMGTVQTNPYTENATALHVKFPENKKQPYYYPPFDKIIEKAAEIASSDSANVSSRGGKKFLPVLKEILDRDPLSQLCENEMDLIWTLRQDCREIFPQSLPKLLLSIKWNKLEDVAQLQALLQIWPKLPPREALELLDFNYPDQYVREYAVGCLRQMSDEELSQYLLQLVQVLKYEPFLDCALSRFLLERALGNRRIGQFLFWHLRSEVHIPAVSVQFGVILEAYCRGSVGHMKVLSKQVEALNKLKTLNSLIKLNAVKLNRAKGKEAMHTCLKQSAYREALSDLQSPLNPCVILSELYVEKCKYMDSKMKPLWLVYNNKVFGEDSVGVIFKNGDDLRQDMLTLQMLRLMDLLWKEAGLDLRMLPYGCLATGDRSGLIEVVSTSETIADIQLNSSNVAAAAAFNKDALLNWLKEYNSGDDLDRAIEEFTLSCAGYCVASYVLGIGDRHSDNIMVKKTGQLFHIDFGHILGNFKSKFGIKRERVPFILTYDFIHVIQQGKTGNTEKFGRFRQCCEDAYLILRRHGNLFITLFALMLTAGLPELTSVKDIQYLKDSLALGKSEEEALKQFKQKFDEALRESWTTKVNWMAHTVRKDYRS
T1 sequence (P27986 whole entry partner): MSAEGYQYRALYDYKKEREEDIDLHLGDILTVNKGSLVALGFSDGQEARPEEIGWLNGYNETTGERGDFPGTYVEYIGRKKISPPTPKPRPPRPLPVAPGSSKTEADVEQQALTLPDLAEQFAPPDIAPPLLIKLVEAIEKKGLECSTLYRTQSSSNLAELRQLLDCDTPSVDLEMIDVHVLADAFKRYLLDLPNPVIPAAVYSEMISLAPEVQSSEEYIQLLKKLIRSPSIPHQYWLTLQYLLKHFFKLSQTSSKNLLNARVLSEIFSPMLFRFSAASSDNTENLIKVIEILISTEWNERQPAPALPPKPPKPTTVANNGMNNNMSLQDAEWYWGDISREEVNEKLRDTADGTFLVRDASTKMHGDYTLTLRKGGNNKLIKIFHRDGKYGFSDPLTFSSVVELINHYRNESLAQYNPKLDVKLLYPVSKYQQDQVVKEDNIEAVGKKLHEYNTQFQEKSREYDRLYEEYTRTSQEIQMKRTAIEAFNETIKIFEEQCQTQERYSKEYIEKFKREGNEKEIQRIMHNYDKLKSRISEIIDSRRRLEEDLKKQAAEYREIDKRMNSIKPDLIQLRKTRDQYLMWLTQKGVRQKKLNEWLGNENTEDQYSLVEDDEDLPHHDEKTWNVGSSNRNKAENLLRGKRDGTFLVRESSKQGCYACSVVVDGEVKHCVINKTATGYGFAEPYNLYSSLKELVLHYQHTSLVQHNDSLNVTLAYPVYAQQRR

[2] = molecular target: T2, PI3K α (Homo sapiens, UniProt P42336); assay: In vitro PI3 kinase enzyme assay (alpha), ATP loss, bioluminescence; format: biochemical; settings: read-out: PI3Kα ATP loss IC50;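 note: purified p110α/p85 heterodimer acting on PtdIns(4,5)P2 at room temperature, remaining ATP read by luminescence, inhibition scaled between compound-free wells with and without enzyme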
T2 construct: Full length p110 subunits of PI3K α, β and δ, N-terminally labeled with polyHis tag; polyHis (N); made in house; host or cells: Sf9 insect cells (baculovirus)
T2 sequence (P42336 whole entry, species assumed): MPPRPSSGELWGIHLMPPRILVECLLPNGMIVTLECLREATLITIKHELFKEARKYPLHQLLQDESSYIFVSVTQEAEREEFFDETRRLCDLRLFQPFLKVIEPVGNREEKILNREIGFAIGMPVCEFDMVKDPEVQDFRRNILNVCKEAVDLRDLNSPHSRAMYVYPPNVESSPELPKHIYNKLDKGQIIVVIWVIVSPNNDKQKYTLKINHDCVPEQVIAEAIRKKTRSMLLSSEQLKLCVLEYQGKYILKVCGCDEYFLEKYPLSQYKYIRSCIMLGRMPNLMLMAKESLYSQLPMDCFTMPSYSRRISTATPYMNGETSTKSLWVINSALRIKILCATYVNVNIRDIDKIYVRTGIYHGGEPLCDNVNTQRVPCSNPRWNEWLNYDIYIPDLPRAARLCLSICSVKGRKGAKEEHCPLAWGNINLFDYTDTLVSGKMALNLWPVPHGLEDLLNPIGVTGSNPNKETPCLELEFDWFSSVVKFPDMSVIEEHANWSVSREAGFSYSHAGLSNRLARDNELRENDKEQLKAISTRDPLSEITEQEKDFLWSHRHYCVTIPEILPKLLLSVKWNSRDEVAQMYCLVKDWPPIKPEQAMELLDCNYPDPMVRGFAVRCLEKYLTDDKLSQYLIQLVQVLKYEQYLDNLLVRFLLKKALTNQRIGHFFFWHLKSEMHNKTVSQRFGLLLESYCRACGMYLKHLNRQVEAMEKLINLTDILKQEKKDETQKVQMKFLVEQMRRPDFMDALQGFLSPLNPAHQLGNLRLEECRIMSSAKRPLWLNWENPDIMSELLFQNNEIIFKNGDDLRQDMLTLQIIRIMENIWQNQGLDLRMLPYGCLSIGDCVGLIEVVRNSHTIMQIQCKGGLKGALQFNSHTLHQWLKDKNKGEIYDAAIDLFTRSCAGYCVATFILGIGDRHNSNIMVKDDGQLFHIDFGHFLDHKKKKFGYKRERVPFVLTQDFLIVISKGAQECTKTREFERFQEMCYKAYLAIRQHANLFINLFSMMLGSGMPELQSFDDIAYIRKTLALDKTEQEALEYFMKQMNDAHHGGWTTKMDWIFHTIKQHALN
T2 sequence (P27986 whole entry partner, species assumed): as the sequence (P27986 whole entry partner) above

[3] = system: phosphorylation of Serine 473 in Akt, HCT 116 human colon carcinoma cells; assay: Cell-based phospho-AKT Ser473 assay (MSD sandwich immunoassay, IGF-1 stimulated); settings: Homo sapiens, HCT-116, HCT 116 cells; read-out: HCT 116 pAKT IC50
Outline: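 Akt Ser473 phosphorylation was measured by MSD electrochemiluminescent sandwich immunoassay in lysates of HCT116 cells (16,000 cells/well). Cells received a compound dilution series for 2 h at 37 °C before a 15 min IGF-1 (100 ng/ml) stimulus, with IC50 calculated from the dose-response.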

SMILES	IC50 [1]	IC50 [2]	IC50 [3]
Nc1nc2ccc(-c3cnc(Cl)c(NS(=O)(=O)c4ccc(C(F)(F)F)cc4Cl)c3)cc2s1 [Example 308, N-(5-(2-amino-1,3-benzothiazol-6-yl)-2-chloro-3-pyridinyl)-2-chloro-4-(trifluoromethyl)benzenesulfonamide]	10.6 nM	2.6 nM	501 nM
Nc1nc2ccc(-c3cnc(Cl)c(NS(=O)(=O)c4ccc(F)cc4Cl)c3)cc2s1 [Example 309, N-(5-(2-amino-1,3-benzothiazol-6-yl)-2-chloro-3-pyridinyl)-2-chloro-4-fluorobenzenesulfonamide]	36.8 nM	14.9 nM	496 nM
Nc1nc2ccc(-c3cnc(Cl)c(NS(=O)(=O)c4ccc(Cl)cc4Cl)c3)cc2s1 [Example 310, N-(5-(2-amino-1,3-benzothiazol-6-yl)-2-chloro-3-pyridinyl)-2,4-dichlorobenzenesulfonamide]	17.4 nM	7.6 nM	402 nM
Nc1nc2ccc(-c3cnc(Cl)c(NS(=O)(=O)c4ccc(F)cc4F)c3)cc2s1 [Example 311, N-(5-(2-amino-1,3-benzothiazol-6-yl)-2-chloro-3-pyridinyl)-2,4-difluorobenzenesulfonamide]	49.1 nM	17.1 nM	222 nM
Cc1cc(F)ccc1S(=O)(=O)Nc1cc(-c2ccc3nc(N)sc3c2)cnc1Cl [Example 312, N-(5-(2-amino-1,3-benzothiazol-6-yl)-2-chloro-3-pyridinyl)-4-fluoro-2-methylbenzenesulfonamide]	24.9 nM	6 nM	348 nM
Nc1nc2ccc(-c3cnc(Cl)c(NS(=O)(=O)c4ccc(Cl)cc4F)c3)cc2s1 [Example 313, N-(5-(2-amino-1,3-benzothiazol-6-yl)-2-chloro-3-pyridinyl)-4-chloro-2-fluorobenzenesulfonamide]	27.9 nM	13.6 nM	424 nM
Nc1nc2ccc(-c3cnc(Cl)c(NS(=O)(=O)c4ccccc4C(F)(F)F)c3)cc2s1 [Example 314, N-(5-(2-amino-1,3-benzothiazol-6-yl)-2-chloro-3-pyridinyl)-2-(trifluoromethyl)benzenesulfonamide]	12.7 nM	2.5 nM	205 nM
CC(=O)Nc1nc2ccc(-c3cnc(Cl)c(NS(=O)(=O)N4CCCCC4)c3)cc2s1 [Example 316, N-(6-(6-chloro-5-((1-piperidinylsulfonyl)amino)-3-pyridinyl)-1,3-benzothiazol-2-yl)acetamide]	35.8 nM	10.3 nM	7 nM
CNc1nc2ccc(-c3cnc(Cl)c(NS(=O)(=O)c4ccc(F)cc4)c3)cc2s1 [Example 317, N-(2-chloro-5-(2-(methylamino)-1,3-benzothiazol-6-yl)-3-pyridinyl)-4-fluorobenzenesulfonamide]	30.2 nM	8.6 nM	246 nM
CNc1nc2ccc(-c3cnc(Cl)c(NS(=O)(=O)c4c(C)cccc4Cl)c3)cc2s1 [Example 318, 2-chloro-N-(2-chloro-5-(2-(methylamino)-1,3-benzothiazol-6-yl)-3-pyridinyl)-6-methylbenzenesulfonamide]	42.3 nM	11.2 nM	329 nM
CNc1nc2ccc(-c3cnc(Cl)c(NS(=O)(=O)c4c(Cl)cccc4Cl)c3)cc2s1 [Example 319, 2,6-dichloro-N-(2-chloro-5-(2-(methylamino)-1,3-benzothiazol-6-yl)-3-pyridinyl)benzenesulfonamide]	36.5 nM	9.2 nM	474 nM
CNc1nc2ccc(-c3cnc(Cl)c(NS(=O)(=O)c4ccccc4F)c3)cc2s1 [Example 320, N-(2-chloro-5-(2-(methylamino)-1,3-benzothiazol-6-yl)-3-pyridinyl)-2-fluorobenzenesulfonamide]	61.8 nM	14.6 nM	448 nM
CNc1nc2ccc(-c3cnc(Cl)c(NS(=O)(=O)c4ccc(C(C)=O)cc4)c3)cc2s1 [Example 321, 4-acetyl-N-(2-chloro-5-(2-(methylamino)-1,3-benzothiazol-6-yl)-3-pyridinyl)benzenesulfonamide]	22.2 nM	12 nM	672 nM
CNc1nc2ccc(-c3cnc(Cl)c(NS(=O)(=O)c4ccc(C(C)(C)NC(C)=O)cc4)c3)cc2s1 [Example 322, N-(1-(4-((2-chloro-5-(2-(methylamino)-1,3-benzothiazol-6-yl)-3-pyridinyl)sulfamoyl)phenyl)-1-methylethyl)acetamide]	25.4 nM	10.8 nM	558 nM
CC(=O)NC(C)(C)c1ccc(S(=O)(=O)Nc2cc(-c3ccc4nc(N)sc4c3)cnc2Cl)cc1 [Example 323, N-(1-(4-((5-(2-amino-1,3-benzothiazol-6-yl)-2-chloro-3-pyridinyl)sulfamoyl)phenyl)-1-methylethyl)acetamide]	33.2 nM	19.6 nM	915 nM
CC(C)(O)c1ccc(S(=O)(=O)Nc2cc(-c3ccc4nc(N)sc4c3)cnc2Cl)cc1 [Example 324, N-(5-(2-amino-1,3-benzothiazol-6-yl)-2-chloro-3-pyridinyl)-4-(1-hydroxy-1-methylethyl)benzenesulfonamide]	17.1 nM	10.9 nM	151 nM
CC(=O)c1ccc(S(=O)(=O)Nc2cc(-c3ccc4nc(N)sc4c3)cnc2Cl)cc1 [Example 325, 4-acetyl-N-(5-(2-amino-1,3-benzothiazol-6-yl)-2-chloro-3-pyridinyl)benzenesulfonamide]	20.6 nM	18 nM	468 nM
O=S(=O)(Nc1cc(-c2ccc3ncoc3c2)cnc1Cl)c1ccc(F)cc1 [Example 326, N-(5-(1,3-benzoxazol-6-yl)-2-chloro-3-pyridinyl)-4-fluorobenzenesulfonamide]	34.5 nM	22.3 nM	> 5000 nM
CC(=O)Oc1cc(-c2ccc3ncsc3c2)cnc1Cl [Example 335, 5-(1,3-benzothiazol-6-yl)-2-chloro-3-pyridinyl acetate]	113 nM	15.6 nM	44 nM
